# Source: ChEMBL document CHEMBL1126052, “2-Carboxytetrahydroquinolines. Conformational and stereochemical requirements for antagonism of the glycine site on the NMDA receptor” (J Med Chem, 1992)
# Target: Glutamate NMDA receptor
# Assay: Concentration required to inhibit 50% of the specific binding of [3H]glycine to NMDA receptor prepared from rat cerebral cortex and hippocampus
# Type: tissue-based
row,SMILES,IC50 [µM]
1,Cc1cc(C)c2c(c1)N[C@@H](C(=O)O)[C@@H](C)C2=O,13.7
2,O=C1CC(C(=O)O)Nc2ccccc21 (configuration not stated),> 100
3,O=C1CC(C(=O)O)Nc2cc(Cl)cc(Cl)c21 (configuration not stated),2.31
4,O=C1CC(C(=O)O)Nc2cc(Br)cc(Br)c21 (configuration not stated),1.29
5,COC(=O)[C@H]1C[C@@H](C(=O)O)Nc2cc(Cl)cc(Cl)c21,1.21
6,Cc1cc(C)c2c(c1)NC(C(=O)O)CC2=O (configuration not stated),1.86
7,O=C(O)[C@H]1C[C@H](C(=O)O)Nc2cc(Cl)cc(Cl)c21,20
8,O=C1CC(C(=O)O)Nc2cccc(Cl)c21 (configuration not stated),6.96
9,O=C(O)C[C@H]1C[C@@H](C(=O)O)Nc2cc(Cl)cc(Cl)c21,15
10,COC(=O)C[C@H]1C[C@H](C(=O)O)Nc2cc(Cl)cc(Cl)c21,0.603
11,O=C1CC(C(=O)O)Nc2cc(Cl)cc(I)c21 (configuration not stated),0.36
12,O=C1CC(C(=O)O)Nc2cc(Cl)ccc21 (configuration not stated),2.36
13,O=C(O)C[C@H]1C[C@H](C(=O)O)Nc2cc(Cl)cc(Cl)c21,0.134
14,NC(=O)[C@H]1C[C@H](C(=O)O)Nc2cc(Cl)cc(Cl)c21,0.72
15,COC(=O)[C@H]1C[C@H](C(=O)O)Nc2cc(Cl)cc(I)c21,3.09
16,O=C(O)[C@@H]1C[C@H](C(=O)O)c2c(Cl)cc(Cl)cc2N1,31.4

row,SMILES,IC50 [µM]
1,O=C(O)[C@@H]1C[C@H](C(=O)OCc2ccccc2)c2c(Cl)cc(Cl)cc2N1,2.33
2,COC(=O)[C@H]1C[C@@H](C(=O)O)Nc2cc(Cl)cc(I)c21,4.18
3,O=C(O)C1CCc2c(Cl)cc(Cl)cc2N1 (configuration not stated),6.39
4,NC(=O)[C@H]1C[C@@H](C(=O)O)Nc2cc(Cl)cc(Cl)c21,3.44
5,COC(=O)[C@H]1C[C@H](C(=O)O)Nc2cccc(Cl)c21,176
6,COC(=O)[C@H]1C[C@@H](C(=O)O)Nc2cc(Br)cc(Br)c21,2.05
7,COC(=O)[C@H]1C[C@H](C(=O)O)Nc2cc(Cl)cc(Cl)c21,2.47
8,COC(=O)[C@H]1C[C@@H](C(=O)O)Nc2cccc(Cl)c21,26.1
9,O=C(O)c1cc(C(=O)O)c2c(Cl)cc(Cl)cc2n1,> 100
10,COC(=O)[C@H]1C[C@H](C(=O)O)Nc2cc(Br)cc(Br)c21,2.89
11,COC(=O)[C@H]1C[C@H](C(=O)O)Nc2cc(Cl)ccc21,16.9
12,Cc1cc(C)c2c(c1)N[C@@H](C(=O)O)[C@H](C)C2=O,> 100
13,Cc1noc(C[C@H]2C[C@H](C(=O)O)Nc3cc(Cl)cc(Cl)c32)n1,2.53
14,O=C(OCc1ccccc1)[C@H]1C[C@H](C(=O)O)Nc2cc(Cl)cc(Cl)c21,1.05
15,O=C1CC(C(=O)O)Nc2cc(I)cc(Cl)c21 (configuration not stated),3.84
16,COC(=O)[C@H]1C[C@@H](C(=O)O)Nc2cc(Cl)ccc21,5.02
